For eight compounds, IC50 results are on record in US11548900B2, “Oxazino-quinazoline and oxazino-quinoline type compound, preparation method and uses thereof” (BEIJING SCITECH-MQ PHARMACEUTICALS LIMITED, priority 2018, dated 2023).

Experiment [1] deals with BT474 cells. The experiment in a line: Inhibition of cell proliferation, BT474 (CCK-8, 72 h). The experiment is classed as cell-based. Particulars: Homo sapiens, BT-474, 72 h incubation. In short, it runs like this:
(§1)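 BT474 and HCC827 seeded at 10,000 and 3000 cells/well respectively, cultured overnight, then exposed to 10-point 3-fold compound dilutions (top stock 10 mM; 0.25% DMSO final) for 72 h. Viability by CCK-8, OD450; survival normalised to untreated and cell-free blanks, IC50 from curve fit.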

For experiment [2], the target named is HER2 kinase (Homo sapiens (Human), UniProt P04626). The experiment in a line: Inhibition of HER2 kinase activity (ULight-labeled PolyGT substrate). The experiment is classed as biochemical. Particulars: HER2 kinase 10 nM, ATP 10 μM, 2 hours. In a few lines: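 Eleven-point 3-fold dilutions (0.042 nM–2.5 μM final, 1% DMSO) tested in duplicate against 10 nM HER2 with 100 nM ULight-labelled PolyGT and 10 μM ATP. Reaction ran 2 h at RT after 5 min pre-incubation; 665/615 nm TR-FRET ratio used to derive inhibition and IC50.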
Chain of HER2 kinase (P04626 23-1255): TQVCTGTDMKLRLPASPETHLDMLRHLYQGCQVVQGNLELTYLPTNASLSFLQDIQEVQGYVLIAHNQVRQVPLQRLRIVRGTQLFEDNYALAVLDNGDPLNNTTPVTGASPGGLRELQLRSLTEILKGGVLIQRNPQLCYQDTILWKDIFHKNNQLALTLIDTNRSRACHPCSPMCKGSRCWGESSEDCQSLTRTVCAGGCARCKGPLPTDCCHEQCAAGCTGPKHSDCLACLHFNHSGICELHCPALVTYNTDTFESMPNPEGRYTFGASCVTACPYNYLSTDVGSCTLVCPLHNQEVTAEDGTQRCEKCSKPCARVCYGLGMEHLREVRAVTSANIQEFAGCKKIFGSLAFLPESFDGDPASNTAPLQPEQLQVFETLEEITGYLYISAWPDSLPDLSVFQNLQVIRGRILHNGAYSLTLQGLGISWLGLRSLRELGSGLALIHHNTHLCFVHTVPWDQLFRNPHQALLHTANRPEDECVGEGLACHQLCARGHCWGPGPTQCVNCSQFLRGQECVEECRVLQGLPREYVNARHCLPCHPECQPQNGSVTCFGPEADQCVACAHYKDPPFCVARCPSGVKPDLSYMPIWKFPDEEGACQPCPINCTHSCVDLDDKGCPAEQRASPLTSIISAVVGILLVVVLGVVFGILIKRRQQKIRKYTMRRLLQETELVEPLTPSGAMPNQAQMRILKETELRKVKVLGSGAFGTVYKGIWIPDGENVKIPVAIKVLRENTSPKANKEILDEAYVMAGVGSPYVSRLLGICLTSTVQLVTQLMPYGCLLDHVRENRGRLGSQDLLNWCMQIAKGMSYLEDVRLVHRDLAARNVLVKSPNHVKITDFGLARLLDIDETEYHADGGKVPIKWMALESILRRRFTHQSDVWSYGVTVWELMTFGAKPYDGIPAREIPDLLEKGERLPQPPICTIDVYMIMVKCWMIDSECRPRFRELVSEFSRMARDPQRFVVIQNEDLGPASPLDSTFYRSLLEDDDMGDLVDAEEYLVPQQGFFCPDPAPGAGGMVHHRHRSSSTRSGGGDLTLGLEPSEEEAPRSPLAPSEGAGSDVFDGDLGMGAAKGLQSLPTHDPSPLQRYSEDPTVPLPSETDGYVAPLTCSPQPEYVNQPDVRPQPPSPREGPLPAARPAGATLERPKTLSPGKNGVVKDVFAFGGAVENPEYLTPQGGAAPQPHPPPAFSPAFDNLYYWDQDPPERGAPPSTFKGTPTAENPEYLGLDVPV

Experiment [3] concerns HCC827 cells. The experiment in a line: Inhibition of cell proliferation, HCC827 (CCK-8, 72 h). The experiment is classed as cell-based. The note with it: Homo sapiens, 72 h incubation. In a few lines: as §1
Experiment [4] concerns the target EGFR kinase (Homo sapiens (Human), UniProt P00533). The experiment in a line: Inhibition of EGFR kinase activity (ULight-labeled JAK-1 (Tyr1023) peptide substrate). The experiment is classed as biochemical. Particulars: EGFR kinase 0.35 nM, ATP 150 μM, 2 hours. In a few lines:
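TR-FRET kinase assay: 0.35 nM EGFR, 150 μM ATP, 100 nM substrate, 2 h at room temperature in the dark after 5 min enzyme-compound preincubation, 1% DMSO. Compounds tested as 11-point 3-fold series, 2.5 μM to 0.042 nM final, duplicate; IC50 from 665/615 nm ratio-based inhibition.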

Chain of EGFR kinase (P00533 25-1210): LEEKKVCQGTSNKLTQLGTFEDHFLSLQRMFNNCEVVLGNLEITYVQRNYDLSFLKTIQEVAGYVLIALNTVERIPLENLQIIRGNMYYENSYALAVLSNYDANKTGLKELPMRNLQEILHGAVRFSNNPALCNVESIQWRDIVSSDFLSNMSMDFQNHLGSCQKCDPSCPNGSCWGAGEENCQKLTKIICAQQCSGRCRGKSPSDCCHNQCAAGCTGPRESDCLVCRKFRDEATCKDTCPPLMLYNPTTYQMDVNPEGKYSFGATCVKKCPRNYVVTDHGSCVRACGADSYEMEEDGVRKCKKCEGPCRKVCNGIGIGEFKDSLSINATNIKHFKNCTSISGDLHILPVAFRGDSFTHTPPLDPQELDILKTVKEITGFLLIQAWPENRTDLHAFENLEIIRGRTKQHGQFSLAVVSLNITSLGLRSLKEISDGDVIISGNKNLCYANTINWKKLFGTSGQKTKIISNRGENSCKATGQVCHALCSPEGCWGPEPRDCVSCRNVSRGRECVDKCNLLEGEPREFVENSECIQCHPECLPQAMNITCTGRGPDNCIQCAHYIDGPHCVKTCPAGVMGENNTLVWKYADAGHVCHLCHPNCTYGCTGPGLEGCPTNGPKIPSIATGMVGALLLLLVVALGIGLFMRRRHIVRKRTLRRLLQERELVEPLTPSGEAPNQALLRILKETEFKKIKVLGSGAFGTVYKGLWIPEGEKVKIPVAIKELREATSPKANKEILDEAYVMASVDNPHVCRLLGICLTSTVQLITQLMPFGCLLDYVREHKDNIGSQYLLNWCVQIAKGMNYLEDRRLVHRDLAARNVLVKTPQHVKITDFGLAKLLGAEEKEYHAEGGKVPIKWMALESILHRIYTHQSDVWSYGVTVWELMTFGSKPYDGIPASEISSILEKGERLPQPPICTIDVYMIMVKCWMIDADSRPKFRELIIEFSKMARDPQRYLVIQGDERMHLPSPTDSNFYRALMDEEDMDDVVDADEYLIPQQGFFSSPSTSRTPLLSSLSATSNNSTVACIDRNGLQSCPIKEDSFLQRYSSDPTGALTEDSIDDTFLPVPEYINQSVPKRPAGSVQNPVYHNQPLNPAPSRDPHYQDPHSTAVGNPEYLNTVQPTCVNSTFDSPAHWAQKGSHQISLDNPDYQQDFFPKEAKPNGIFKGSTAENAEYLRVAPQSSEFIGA

As a reminder, the IC50 is the midpoint of a concentration-inhibition curve. A higher IC50 goes with weaker potency. For `CCN(CC)C/C=C/C(=O)N1CCOc2c1ccc1ncnc(Nc3ccc(Oc4ccccc4)cc3)c21` [Example 92, (E)-4-(diethylamino)-1-(10-((4-phenoxyphenyl)amino)-2,3-dihydro-4H-[1,4]oxazino[2,3-f]quinazolin-4-yl)but-2-en-1-one], the IC50 in experiment [1] was no more than 50 nM; in experiment [2], no more than 50 nM; in experiment [3] it was 500 to 5000 nM; in experiment [4], no more than 50 nM.

Consider `O=C(/C=C/CN1CCCCC1)N1CCOc2c1ccc1ncnc(Nc3ccc(Oc4ccccc4)cc3)c21` [Example 93, (E)-1-(10-((4-phenoxyphenyl)amino)-2,3-dihydro-4H-[1,4]oxazino[2,3-f]quinazolin-4-yl)-4-(piperidin-1-yl)but-2-en-1-one], for which the IC50 is no more than 50 nM in experiment [1], no more than 50 nM in experiment [2], 50 to 500 nM in experiment [3] and no more than 50 nM in experiment [4].

On to `O=C(/C=C/CN1CCOCC1)N1CCOc2c1ccc1ncnc(Nc3ccc(Oc4ccccc4)cc3)c21` [Example 94, (E)-4-morpholino-1-(10-((4-phenoxyphenyl)amino)-2,3-dihydro-4H-[1,4]oxazino[2,3-f]quinazolin-4-yl)but-2-en-1-one], for which the IC50 in experiment [1] is no more than 50 nM; in experiment [2] it was no more than 50 nM; in experiment [3], 500 to 5000 nM; in experiment [4], no more than 50 nM.

For the compound `CN1CCN(C/C=C/C(=O)N2CCOc3c2ccc2ncnc(Nc4ccc(Oc5ccccc5)cc4)c32)CC1` [Example 95, (E)-4-(4-methylpiperazin-1-yl)-1-(10-((4-phenoxyphenyl)amino)-2,3-dihydro-4H-[1,4]oxazino[2,3-f]quinazolin-4-yl)but-2-en-1-one], the IC50 in experiment [1] was no more than 50 nM; in experiment [2], no more than 50 nM; in experiment [3], 50 to 500 nM; in experiment [4], no more than 50 nM.

On to `O=C(/C=C/CN1CCOCC1)N1CCOc2c1ccc1ncnc(Nc3ccc(OCc4cccc(F)c4)c(Cl)c3)c21` [Example 96, (E)-1-(10-((3-chloro-4-((3-fluorobenzyl)oxy)phenyl)amino)-2,3-dihydro-4H-[1,4]oxazino[2,3-f]quinazolin-4-yl)-4-morpholinobut-2-en-1-one], for which the IC50 in experiment [1] is no more than 50 nM; in experiment [2], no more than 50 nM; in experiment [3], 50 to 500 nM; in experiment [4] it was no more than 50 nM.

In the case of `CN1CCN(C/C=C/C(=O)N2CCOc3c2ccc2ncnc(Nc4ccc(OCc5ccccn5)c(Cl)c4)c32)CC1` [Example 104, (E)-1-(10-((3-chloro-4-(pyridin-2-ylmethoxy)phenyl)amino)-2,3-dihydro-4H-[1,4]oxazino[2,3-f]quinazolin-4-yl)-4-(4-methylpiperazin-1-yl)but-2-en-1-one], the IC50 in experiment [1] is no more than 50 nM; in experiment [2], no more than 50 nM; in experiment [3] it was 50 to 500 nM; in experiment [4] it was no more than 50 nM.

Regarding `CCN(CC)C/C=C/C(=O)N1CCOc2c1ccc1ncnc(Nc3ccc(OCc4ccccn4)c(Cl)c3)c21` [Example 105, (E)-1-(10-((3-chloro-4-(pyridin-2-ylmethoxy)phenyl)amino)-2,3-dihydro-4H-[1,4]oxazino[2,3-f]quinazolin-4-yl)-4-(diethylamino)but-2-en-1-one], the IC50 was no more than 50 nM in experiment [1], no more than 50 nM in experiment [2], 50 to 500 nM in experiment [3] and no more than 50 nM in experiment [4].

Take `O=C(/C=C/CN1CCCC1)N1CCOc2c1ccc1ncnc(Nc3ccc(OCc4ccccn4)c(Cl)c3)c21` [Example 106, (E)-1-(10-((3-chloro-4-(pyridin-2-ylmethoxy)phenyl)amino)-2,3-dihydro-4H-[1,4]oxazino[2,3-f]quinazolin-4-yl)-4-(pyrrolidin-1-yl)but-2-en-1-one]: the IC50 is no more than 50 nM in experiment [1], no more than 50 nM in experiment [2], 50 to 500 nM in experiment [3] and no more than 50 nM in experiment [4].
